Reference: article PMC11680164 (Viruses, 2024)

Legend:
[1] = Pharmacokinetics (plasma and lung) after single oral dose in mice; format: in vivo, Swiss Webster mice; conditions: 60 mg/kg p.o. single dose
[2] = cited from earlier work
[3] = Swiss Webster, mouse, po, plasma

SMILES: COC(=O)N[C@H](C(=O)N1CCC[C@H]1c1nc(-c2ccc(-c3ccc(-c4c[nH]c([C@@H]5CCCN5C(=O)[C@@H](NC(=O)OC)C(C)C)n4)cc3)cc2)c[nH]1)C(C)C [daclatasvir]
- AUC in plasma relative to lungs [1]: ~5.9 fold
- Cmax ([1]; Swiss Webster, mouse, po, lung): 6190 ng/g
- Tmax ([1]; Swiss Webster, mouse, po, lung): 0.67 h
- half-life ([1]; Swiss Webster, mouse, po, lung): 14.7 h
- AUC(0-inf) [1, 3]: 103 µg·h/mL
- AUC(0-t) [1, 3]: 101 µg·h/mL
- Cmax [1, 3]: 22200 ng/mL
- Tmax [1, 3]: 1 h
- half-life [1, 3]: 2.25 h
- AUClast ([1]; lung): 16,932 h.ng/g
- AUC∞ ([1]; lung): 19,123 h.ng/g
- Ct (last concentration observed above the limit of quantification) ([1]; lung): 103.46 ng/g
- Tlast ([1]; lung): 16.00 h
- λ (apparent elimination constant) ([1]; lung): 0.0472 h*^−1
- Ct (last concentration observed above the limit of quantification) ([1]; plasma): 353.84 ng/mL
- Tlast ([1]; plasma): 16.00 h
- λ (apparent elimination constant) ([1]; plasma): 0.308 h*^−1
- no-observable-effect level (NOEL) ([2]; nonhuman primates treated daily for 4–9 months): 15 mg/kg
- tolerated dose ([2]; nonhuman primates): 15 mg/kg
